Laboratory results as given in patent publication US10555926B2, “Use of cabazitaxel in the treatment of prostate cancer” (Erasmus University Medical Center Rotterdam, priority 2015, dated 2020).
Read-outs that look alike come from different tables or passages of the source.

Key:
[1] = test system: castration resistant prostate cancer (CRPC) patients; conditions: in combination with prednisone; first-line chemotherapy; cited from earlier work
[2] = test system: mCRPC patients; conditions: cited from earlier work
[3] = test system: CTCs of mCRPC patients; test: CTC response to cabazitaxel after two cycles (CABARESC side-study); format: in vivo, human; conditions: for CTC response: No (number of patients): 25 mg/m^2; for CTC response: Yes (number of patients): decrease from ≥10 to <5 CTCs/7.5 mL
Procedure: Blood was drawn by venipuncture before start of the first and the third cycle of cabazitaxel. Enumeration of CTCs was carried out as described in detail before (Sieuwerts et al., 2009. Breast Cancer Res Treat 118:455-68; Sieuwerts et al., 2011. Clin Cancer Res 17:3600-18). Briefly, CTCs were enumerated from 7.5 mL of blood drawn into a CellSave Preservative tube (Janssen Diagnostics). Blood samples were processed within 96 hours using the Epithelial Cell Kit on the CellSearch System (both Janssen Diagnostics). In this system, epithelial cells are immunomagnetically enriched from whole blood using anti-EpCAM antibodies loaded with ferrofluid nanoparticles. Enriched cells are stained with the nuclear dye 4′,6-diamidino-2-phenylindole (DAPI), anti-cytokeratin 8/18/19 labeled with phycoerythrin (PE), and anti-CD45 labeled with allophycocyanin (APC), followed by scanning using the CellTracks Analyzer (Janssen Diagnostics). All cells ≥4 μm, with round-to-oval morphology, positive for cytokeratin and DAPI, with at least 50% overlap in the DAPI and cytokeratin signal, and negative for CD45 were considered CTCs. All samples were analyzed by two independent, trained reviewers.
From 25 patients a secondary CTC sample was available; in three patients the second draw was missed and one patient died after the second cycle because of a non-disease related event. Of these 25 patients, 15 were AR-V7-positive and 10 were AR-V7-negative. […] The CTC-RRs in both AR-V7-positive and AR-V7-negative patient groups were 20% (Table 4).

[4] = test system: mCRPC patients; test: PSA response to cabazitaxel (after 12 weeks and best response at end of treatment); format: in vivo, human; conditions: for Best PSA response: No (number of patients) / Best PSA response: ≥50% (number of patients) / Best PSA response: ≥30% (number of patients): end of treatment; for Best PSA response: ≥30% (number of patients) / PSA response after 12 weeks: ≥30% (number of patients): includes patients with ≥50% PSA response
From the text: Sequential PSA levels during cabazitaxel for evaluation of PSA response after 12 weeks and maximal PSA response at the end of treatment were available from […]. Five (17%) and three patients (10%) achieved a ≥30% and ≥50% PSA response, respectively, after 12 weeks of treatment. At the end of treatment, the best PSA response was ≥30% in seven patients (24%) and ≥50% in three patients (10%). The differences between 30% and 50% PSA-RR after 12 weeks and at the end of treatment between patients with and without AR-V7 in CTCs were not statistically significant (Table 4, FIG. 2). Prior abiraterone acetate treatment had no influence on CTC-RR and PSA-RR during cabazitaxel treatment.

[5] = test system: mCRPC patients; test: Overall survival under cabazitaxel treatment
Procedure: Primary endpoint of this study was the CTC response rate (RR) to cabazitaxel, defined as a decrease from ≥10 CTC to <5/7.5 ml of blood after two treatment cycles.
Applied statistical tests were the X^2 test for differences between categorical variables, the Student's t test for normally distributed and the Mann-Whitney U test for other continuous variables. Correlations were tested by Pearson or the non-parametric Spearman's test, depending on the distribution. Survival was visualized using Kaplan Meier plots and differences were calculated through Log-rank testing. All statistical tests were two-sided. A P-value <0.05 was considered statistically significant.

[6] = patients with AR-V7 transcripts in their CTCs
[7] = all patients, after 12 weeks of treatment
[8] = all patients, at the end of treatment

CC(=O)O[C@@]12CO[C@@H]1C[C@H](O)[C@@]1(C)C(=O)[C@H](O)C3=C(C)[C@@H](OC(=O)[C@H](O)[C@@H](NC(=O)OC(C)(C)C)c4ccccc4)C[C@@](O)([C@@H](OC(=O)c4ccccc4)[C@H]21)C3(C)C [docetaxel]
survival benefit [1]: 2.4 months

CC(=O)O[C@H]1CC[C@@]2(C)C(=CC[C@@H]3[C@@H]2CC[C@]2(C)C(c4cccnc4)=CC[C@@H]32)C1 [abiraterone acetate]
patients who responded [2, 6]: none
patients who responded ([2]; patients without AR-V7): 68%

CO[C@H]1C(=O)[C@]2(C)[C@@H](OC)C[C@H]3OC[C@@]3(OC(C)=O)[C@H]2[C@H](OC(=O)c2ccccc2)[C@]2(O)C[C@H](OC(=O)[C@H](O)[C@@H](NC(=O)OC(C)(C)C)c3ccccc3)C(C)=C1C2(C)C [cabazitaxel, 4a-acetoxy-2a-benzoyloxy-5,20-epoxy-1-hydroxy-7,10-dimethoxy-9-oxo-1 1-taxen-13a-yl (2R,3S)-3-fert-butoxycarbonylamino-2-hydroxy-3-phenylpropionate]
CTC-RR ([3]; AR-V7-negative patient group): 20%
CTC-RR ([3]; AR-V7-positive patient group): 20%
CTC response: No (number of patients) ([3]; AR-V7 in CTCs at baseline: No): 8
CTC response: Yes (number of patients) ([3]; AR-V7 in CTCs at baseline: No): 2
CTC response: No (number of patients) ([3]; AR-V7 in CTCs at baseline: Yes): 12
CTC response: Yes (number of patients) ([3]; AR-V7 in CTCs at baseline: Yes): 3
CTC response to cabazitaxel (share of patients) ([3]; all 25 patients with a second CTC sample): 20%
PSA response after 12 weeks: No (number of patients) ([4]; AR-V7 in CTCs at baseline: No): 9
PSA response after 12 weeks: ≥50% (number of patients) ([4]; AR-V7 in CTCs at baseline: No): 2
Best PSA response: No (number of patients) ([4]; AR-V7 in CTCs at baseline: No): 7
Best PSA response: ≥50% (number of patients) ([4]; AR-V7 in CTCs at baseline: No): 2
Best PSA response: ≥30% (number of patients) ([4]; AR-V7 in CTCs at baseline: No): 4
PSA response after 12 weeks: ≥30% (number of patients) ([4]; AR-V7 in CTCs at baseline: No): 3
PSA response after 12 weeks: No (number of patients) ([4]; AR-V7 in CTCs at baseline: Yes): 12
PSA response after 12 weeks: ≥50% (number of patients) ([4]; AR-V7 in CTCs at baseline: Yes): 1
Best PSA response: No (number of patients) ([4]; AR-V7 in CTCs at baseline: Yes): 12
Best PSA response: ≥50% (number of patients) ([4]; AR-V7 in CTCs at baseline: Yes): 1
Best PSA response: ≥30% (number of patients) ([4]; AR-V7 in CTCs at baseline: Yes): 3
PSA response after 12 weeks: ≥30% (number of patients) ([4]; AR-V7 in CTCs at baseline: Yes): 2
≥30% PSA response (share of patients) [4, 7]: 17%
≥50% PSA response (share of patients) [4, 7]: 10%
best PSA response ≥30% (share of patients) [4, 8]: 24%
best PSA response ≥50% (share of patients) [4, 8]: 10%
Median OS ([5]; all patients (28 available)): 9.5 (95% CI 5.8-13.2) months
Median OS ([5]; patients with AR-V7 in CTCs at baseline): 9.5 (95% CI 4.5-14.5) months
Median OS ([5]; patients without AR-V7 in CTCs at baseline): 7.7 (95% CI 3.3-12.1) months

CNC(=O)c1ccc(N2C(=S)N(c3ccc(C#N)c(C(F)(F)F)c3)C(=O)C2(C)C)cc1F [enzalutamide]
patients who responded [2, 6]: none
patients who responded ([2]; patients without AR-V7): 53%
